Data reported in paper PMC12203311, “Design, synthesis, in silico and in vitro evaluation of pyrrole–indole hybrids as dual tubulin and aromatase inhibitors with potent anticancer activities” (RSC Advances, 2025).

Assays:
Human CYP19 (aromatase) = biological target: T1, Human CYP19 (aromatase) (Homo sapiens, UniProt P11511); assay: Aromatase inhibition assay (DBF fluorometric substrate); type: biochemical; conditions: active defined as IC50 < 12.5 µM
T1 construct: purchased GENTEST, Woburn, MA 456260; host or cells: baculovirus/insect cells
T1 sequence (P11511 1-503): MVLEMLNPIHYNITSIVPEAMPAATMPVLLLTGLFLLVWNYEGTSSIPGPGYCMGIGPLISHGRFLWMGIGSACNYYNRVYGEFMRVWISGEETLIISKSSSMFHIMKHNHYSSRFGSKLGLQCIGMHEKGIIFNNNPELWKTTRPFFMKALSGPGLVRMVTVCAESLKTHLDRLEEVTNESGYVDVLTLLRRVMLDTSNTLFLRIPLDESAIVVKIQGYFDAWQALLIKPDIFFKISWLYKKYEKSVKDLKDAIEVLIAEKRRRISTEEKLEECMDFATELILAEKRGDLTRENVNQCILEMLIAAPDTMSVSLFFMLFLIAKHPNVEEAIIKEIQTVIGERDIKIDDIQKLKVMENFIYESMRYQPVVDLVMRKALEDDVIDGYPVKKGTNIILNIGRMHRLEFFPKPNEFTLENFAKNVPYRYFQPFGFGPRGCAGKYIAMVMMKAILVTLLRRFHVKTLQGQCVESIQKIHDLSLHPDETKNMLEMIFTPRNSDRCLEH
Protocol: Aromatase enzyme was purchased from GENTEST, Woburn, MA01801, USA (Supersom human CYP19+oxidoreductase, baculovirus/insect cell-expressed; Product No. 456260). The aromatase inhibitory activity was performed using Human CYP19 enzymes and DBF as a fluorometric substrate as described by Stresser, et al.[41] with minor modifications. The mixture, containing 100 µL of cofactor/serial dilution buffer was pre-incubated in 37 °C for 10 min. […] After incubation at 37 °C for 30 min, the reaction was stopped by addition of 50 µL of 2.2 M NaOH. Fluorescence signal was monitored using an excitation wavelength of 490 nm and emission wavelength of 530 nm.

[1] = system: T47D breast cancer cell line; assay: Cytotoxicity MTT assay, T47D; type: cell-based, human; conditions: for activity against T47D in two-dose screen: 10 µM and 50 µM; for IC50: MTT, 48 hours
Protocol: (§1) T47D (ATCC HTB-133) was purchased from Biomedia (Thailand) Co., LTD. L929 (ATCC CCL-1) was received as a gift from Prof. Tanapat Palaga, Department of Microbiology, Faculty of Science, Chulalongkorn University, Bangkok, Thailand. The cells were cultured in Dulbecco's Modified Eagle's Medium (DMEM; Gibco) supplemented with 10% fetal bovine serum (FBS; HyClone), 100 U mL^−1 penicillin and 100 µg mL^−1 streptomycin (Gibco) at 37 °C with 5% CO2.
(§2) The antiproliferative activity was determined by MTT assay. Briefly, the cells were plated into a 96-well microplate at the density of 10 000 cells per well. The cells were allowed to grow overnight before treated with the solutions of compounds in culture medium at the designated concentrations for 48 hours. The medium was then replaced with MTT solution (0.5 mg mL^−1 MTT in culture medium) and incubated for 3 hours. A 100 µL of DMSO was used to dissolve the produced formazan. Absorbance at 570 nm was then measured using a microplate reader (Varioskan™ LUX multimode microplate reader, Thermo Scientific™). Percent viability was calculated relative to the vehicle control (DMSO).

[2] = system: NCI60 human cell line panel; assay: NCI60 one-dose screen; type: cell-based; conditions: 10 µM single dose
Protocol: The one-dose experimental protocol followed the method described in this literature.[28] First, all compounds were tested at a single concentration (10 µM) across the entire NCI60 panel. The results of this assay indicate the growth relative to no-drug control and the number of cells at time zero. This method allows for the detection of growth inhibition (values between 0 to 100) and lethality (value below 0).

[3] = Cytotoxicity MTT assay, L929; type: cell-based, mouse; conditions: mouse, L929 fibroblast cells; MTT, 48 hours
Protocol: as §1, §2

[4] = system: L929 normal mouse fibroblast cell line; assay: Cytotoxicity MTT assay, L929; type: cell-based; conditions: IC50 (L929)/IC50 (T47D)
Protocol: as §1, §2

IC50 (Human CYP19 (aromatase)) [µM] | aromatase inhibition (Human CYP19 (aromatase)) | SMILES | activity against T47D in two-dose screen [1] | further results
11.3 ± 1.7 | – | O=C(N/N=C/c1ccco1)c1[nH]c2ccc(Br)cc2c1-c1ccccc1 [Derivative 1a, reference compound] | – | –
> 12.5 | inactive against aromatase | O=C(O)c1cc(/C=N/NC(=O)c2[nH]c3ccc(Br)cc3c2-c2ccccc2)c[nH]1 [Derivative 3w, (E)-4-((2-(5-Bromo-3-phenyl-1H-indole-2-carbonyl)hydrazono)methyl)-1H-pyrrole-2-carboxylic acid] | weak activity | –
> 12.5 | lacked aromatase inhibition | O=C(N/N=C/c1cccs1)c1[nH]c2ccc(Br)cc2c1-c1ccccc1 [Derivative 2a, reference compound] | – | –
1.6 ± 0.4 | – | O=C(N/N=C/c1cc(C(=O)N2CCOCC2)c[nH]1)c1[nH]c2ccc(Br)cc2c1-c1ccccc1 [Derivative 3o, (E)-5-Bromo-N′-((4-(morpholine-4-carbonyl)-1H-pyrrol-2-yl)methylene)-3-phenyl-1H-indole-2-carbohydrazide] | – | IC50 ([1]; Homo sapiens, T47D): 14.9 ± 1 µM; NCI mean (mean growth percentage over the panel) [2]: 45%; IC50 at 48 h [3]: 43.2 ± 9.9 µM
> 12.5 | inactive against aromatase | O=C(O)c1c[nH]c(/C=N/NC(=O)c2[nH]c3ccc(Br)cc3c2-c2ccccc2)c1 [Derivative 3m, (E)-5-((2-(5-Bromo-3-phenyl-1H-indole-2-carbonyl)hydrazono)methyl)-1H-pyrrole-3-carboxylic acid] | weak activity | growth inhibition in the single dose experiment [2]: mild effects
> 12.5 | inactive against aromatase | O=C(O)c1ccc(/C=N/NC(=O)c2[nH]c3ccc(Br)cc3c2-c2ccccc2)[nH]1 [Derivative 3l, (E)-5-((2-(5-Bromo-3-phenyl-1H-indole-2-carbonyl)hydrazono)methyl)-1H-pyrrole-2-carboxylic acid] | weak activity | growth inhibition in the single dose experiment [2]: mild effects
3.7 ± 0.6 | – | O=C(N/N=C/c1c[nH]c(C(=O)N2CCOCC2)c1)c1[nH]c2ccc(Br)cc2c1-c1ccccc1 [Derivative 3x, (E)-5-Bromo-N′-((5-(morpholine-4-carbonyl)-1H-pyrrol-3-yl)methylene)-3-phenyl-1H-indole-2-carbohydrazide] | weak activity | –
– | – | N.N.[Cl][Pt][Cl] [Cisplatin, reference compound] | – | IC50 [1]: > 100 µM
0.018 ± 0.002 | – | CCOC(=O)c1cc[nH]c1/C=N/NC(=O)c1[nH]c2ccc(Br)cc2c1-c1ccccc1 [Derivative 3k, Ethyl (E)-2-((2-(5-bromo-3-phenyl-1H-indole-2-carbonyl)hydrazono)methyl)-1H-pyrrole-3-carboxylate] | – | IC50 ([1]; Homo sapiens, T47D): 10.6 ± 1.1 µM; NCI mean (mean growth percentage over the panel) [2]: 49%; Selectivity index (SI) [4]: 1.42; IC50 at 48 h [3]: 15 ± 8.9 µM
